Values after ≈ are worked out from the molar mass of the structure shown.
Tests used:
[1] = test system: E. faecium OC3312; experiment: MIC by microdilution broth method (NCCLS), E. faecium OC3312; assay type: cell-based; conditions: Enterococcus faecium, OC3312, microdilution broth, cation adjusted Mueller-Hinton broth, 35° C., 16-20 hours; read-out: MIC (μg/mL) E. faecium OC3312
Experimental: (§1) Minimal inhibitory concentration (MIC) has been an indicator of in vitro antibacterial activity widely used in the art. The in vitro antimicrobial activity of the compounds was determined by the microdilution broth method following the test method from the National Committee for Laboratory Standards (NCCLS). This method is described in the NCCLS Document M7-A4, Vol. 17, No.2, “Methods for Dilution Antimicrobial Susceptibility Test for Bacteria that Grow Aerobically-Fourth Edition”, which is incorporated herein by reference.
(§2) In this method two-fold serial dilutions of drug in cation adjusted Mueller-Hinton broth are added to wells in microdilution trays. The test organisms are prepared by adjusting the turbidity of actively growing broth cultures so that the final concentration of test organism after it is added to the wells is approximately 5×10^4 CFU/well.
(§3) Following inoculation of the microdilution trays, the trays are incubated at 35° C. for 16-20 hours and then read. […] The amount of growth in the wells containing the test compound is compared with the amount of growth in the growth-control wells (no test compound) used in each tray. As set forth in Table 1, compounds of the present invention were tested against a variety of Gram positive and Gram negative pathogenic bacteria resulting in a range of activities, from 1 to ≧128 μg/mL depending on the organism tested.

[2] = test system: MRSA OC 2878; experiment: MIC by microdilution broth method (NCCLS), MRSA OC 2878; assay type: cell-based, Staphylococcus aureus; conditions: Staphylococcus aureus, MRSA, cation adjusted Mueller-Hinton broth, 35° C., 16-20 hours, read-out: MIC (μg/mL) MRSA OC 2878
Experimental: as §1, §2, §3

[3] = test system: S. aureus; experiment: MIC by microdilution broth method (NCCLS), S. aureus Broth; assay type: cell-based; conditions: Staphylococcus aureus, cation adjusted Mueller-Hinton broth, 35° C., 16-20 hours, read-out: MIC (μg/mL) S. aureus Broth
Experimental: as §1, §2, §3

Structure (SMILES)	MIC [1] [µg/mL]	MIC [2] [µg/mL]	MIC [3] [µg/mL]	melting point [°C]
CC(=O)NC[C@H]1CN(c2ccc(OC3CCN(S(=O)(=O)N(C)C)CC3)c(F)c2)C(=O)O1 [Compound 23, (S)-N-[[3-[3-Fluoro-4-{N-(dimethylsulfamoyl)piperidinyl-4-oxy}phenyl]-2-oxo-5-oxazolidinyl]methyl]acetamide]	16 (≈ 34.9 µM)	4 (≈ 8.72 µM)	16 (≈ 34.9 µM)	132 to 134
CC(=O)NC[C@H]1CN(c2ccc(OC3CCN(C(=O)c4cccnc4)CC3)c(F)c2)C(=O)O1 [Compound 19, (S)-N-[[3-[3-Fluoro-4-{N-(3-pyridoyl)piperidinyl-4-oxy}phenyl]-2-oxo-5-oxazolidinyl]methyl]acetamide]	32 (≈ 70.1 µM)	32 (≈ 70.1 µM)	16 (≈ 35.1 µM)	49 to 53
CC(=O)NC[C@H]1CN(c2ccc(OC3CCN(S(C)(=O)=O)CC3)c(F)c2)C(=O)O1 [Compound 6, (S)-N-[[3-[3-Fluoro-4-{N-(methanesulfonyl)piperidinyl-4-oxy}phenyl]-2-oxo-5-oxazolidinyl]methyl]acetamide]	8 (≈ 18.6 µM)	4 (≈ 9.31 µM)	4 (≈ 9.31 µM)	123 to 125
CC(=O)NC[C@H]1CN(c2ccc(OC3CCN(c4ncccn4)CC3)c(F)c2)C(=O)O1 [Compound 9, (S)-N-[[3-[3-Fluoro-4-{N-(2-pyrimidinyl)piperidinyl-4-oxy}phenyl]-2-oxo-5-oxazolidinyl]methyl]acetamide]	8 (≈ 18.6 µM)	4 (≈ 9.31 µM)	4 (≈ 9.31 µM)	121 to 123
CC(=O)NC[C@H]1CN(c2ccc(OC3CCN(C(=O)COCc4ccccc4)C3)c(F)c2)C(=O)O1 (stereo partly drawn) [Compound 39, (S)-N-[[3-[3-Fluoro-4-{N-(benzyloxyacetyl)pyrrolidinyl-3-oxy}phenyl]-2-oxo-5-oxazolidinyl]methyl]acetamide]	16 (≈ 33 µM)	16 (≈ 33 µM)	16 (≈ 33 µM)	53 to 55
CC(=O)NC[C@H]1CN(c2ccc(OC3CCCN(C(=O)OC(C)(C)C)C3)c(F)c2)C(=O)O1 (stereo partly drawn) [Compound 34, (S)-N-[[3-[3-Fluoro-4-{N-(t-butoxycarbonyl)piperidinyl-3-oxy}phenyl]-2-oxo-5-oxazolidinyl]methyl]acetamide]	> 128	64 (≈ 142 µM)	128 (≈ 284 µM)	60 to 63
CC(=O)NC[C@H]1CN(c2ccc(OC3CCN(C(=O)c4cccc(C(F)(F)F)c4)CC3)c(F)c2)C(=O)O1 [Compound 10, (S)-N-[[3-[3-Fluoro-4-{N-(3-trifluoromethylbenzoyl)piperidinyl-4-oxy}phenyl]-2-oxo-5-oxazolidinyl]methyl]acetamide]	32 (≈ 61.1 µM)	16 (≈ 30.6 µM)	16 (≈ 30.6 µM)	150 to 152
CC(=O)NC[C@H]1CN(c2ccc(OC3CCN(C(=O)COC(C)=O)CC3)c(F)c2)C(=O)O1 [Compound 53, (S)-N-[[3-[3-Fluoro-4-{N-(acetoxyacetyl)piperidinyl-4-oxy}phenyl]-2-oxo-5-oxazolidinyl]methyl]acetamide]	16 (≈ 35.4 µM)	8 (≈ 17.7 µM)	8 (≈ 17.7 µM)	146 to 147.5
CC(=O)NC[C@H]1CN(c2ccc(OC3CCN(C(=O)CCc4cccnc4)CC3)c(F)c2)C(=O)O1 [Compound 27, (S)-N-[[3-[3-Fluoro-4-{N-(3-pyridin-3-yl-propionyl)piperidinyl-4-oxy}phenyl]-2-oxo-5-oxazolidinyl]methyl]acetamide]	16 (≈ 33 µM)	16 (≈ 33 µM)	16 (≈ 33 µM)	45 to 47
CC(=O)NC[C@H]1CN(c2ccc(OC3CCN(C(=O)c4ccccn4)CC3)c(F)c2)C(=O)O1 [Compound 20, (S)-N-[[3-[3-Fluoro-4-{N-(2-pyridoyl)piperidinyl-4-oxy}phenyl]-2-oxo-5-oxazolidinyl]methyl]acetamide]	16 (≈ 35.1 µM)	8 (≈ 17.5 µM)	8 (≈ 17.5 µM)	55 to 58
CC(=O)NC[C@H]1CN(c2ccc(OC3CCNCC3)c(F)c2)C(=O)O1 [Compound 2, (S)-N-[[3-[3-Fluoro-4-{piperidinyl-4-oxy}phenyl]-2-oxo-5-oxazolidinyl]methyl]acetamide]	8 (≈ 22.8 µM)	32 (≈ 91.1 µM)	8 (≈ 22.8 µM)	55 to 59
CC(=O)NC[C@H]1CN(c2ccc(OC3CCN(C(=O)c4ccco4)CC3)c(F)c2)C(=O)O1 [Compound 51, (S)-N-[[3-[3-Fluoro-4-{N-(2-furoyl)piperdinyl-4-oxy}phenyl]-2-oxo-5-oxazolidinyl]methyl]acetamide]	8 (≈ 18 µM)	8 (≈ 18 µM)	16 (≈ 35.9 µM)	134 to 136
CC(=O)NC[C@H]1CN(c2ccc(OC3CCN(C(=O)CNS(C)(=O)=O)CC3)c(F)c2)C(=O)O1 [Compound 17, (S)-N-[[3-[3-Fluoro-4-{N-(α-methylsulfonylaminoacetyl)piperidinyl-4-oxy}phenyl]-2-oxo-5-oxazolidinyl]methyl]acetamide]	16 (≈ 32.9 µM)	16 (≈ 32.9 µM)	8 (≈ 16.4 µM)	78 to 82
CC(=O)NC[C@H]1CN(c2ccc(OC3CCN(C(=O)CN)CC3)c(F)c2)C(=O)O1 [Compound 16]	32 (≈ 78.3 µM)	32 (≈ 78.3 µM)	32 (≈ 78.3 µM)	142 to 146
CC(=O)NC[C@H]1CN(c2ccc(OC3CCN(S(C)(=O)=O)CC3)nc2)C(=O)O1 [Compound 44, (5S)-3-[6-{N-(Methanesulfonyl)piperidinyl-4-oxy}-pyridin-3-yl]-5-methylacetamide-oxazolidin-2-one]	128 (≈ 310 µM)	64 (≈ 155 µM)	32 (≈ 77.6 µM)	175 to 176
CC(=O)NC[C@H]1CN(c2ccc(OC3CCN(C(=O)c4ccc(C#N)cc4)CC3)c(F)c2)C(=O)O1 [Compound 11, (S)-N-[[3-[3-Fluoro-4-{N-(4-cyanobenzoyl)piperidinyl-4-oxy}phenyl]-2-oxo-5-oxazolidinyl]methyl]acetamide]	16 (≈ 33.3 µM)	8 (≈ 16.6 µM)	16 (≈ 33.3 µM)	75 to 78
CC(=O)NC[C@H]1CN(c2ccc(OC3CCN(C(=O)N(C)C)CC3)c(F)c2)C(=O)O1 [Compound 24, (S)-N-[[3-[3-Fluoro-4-{N-(dimethylcarbamoyl)piperidinyl-4-oxy}phenyl]-2-oxo-5-oxazolidinyl]methyl]acetamide]	32 (≈ 75.7 µM)	16 (≈ 37.9 µM)	8 (≈ 18.9 µM)	129 to 131
CC(=O)NC[C@H]1CN(c2ccc(OC3CCN(C(=O)c4cccs4)CC3)c(F)c2)C(=O)O1 [Compound 22, (S)-N-[[3-[3-Fluoro-4-{N-(2-thienylcarbonyl)piperidinyl-4-oxy}phenyl]-2-oxo-5-oxazolidinyl]methyl]acetamide]	8 (≈ 17.3 µM)	4 (≈ 8.67 µM)	8 (≈ 17.3 µM)	48 to 51
CC(=O)NC[C@H]1CN(c2ccc(OC3CN(C(=O)COC(C)=O)C3)c(F)c2)C(=O)O1 [Compound 59, (S)-N-[[3-[3-Fluoro-4-{N-(acetoxyacetyl)azetidinyl-3-oxy}phenyl]-2-oxo-5-oxazolidinyl]methyl]acetamide]	16 (≈ 37.8 µM)	8 (≈ 18.9 µM)	4 (≈ 9.45 µM)	172 to 175
CC(=O)NC[C@H]1CN(c2ccc(OC3CCN(C(=O)OC(C)(C)C)CC3)c(F)c2)C(=O)O1 [Compound 1, (S)-N-[[3-[3-Fluoro-4-{N-(t-butoxycarbonyl)piperidinyl-4-oxy}phenyl]-2-oxo-5-oxazolidinyl]methyl]acetamide]	> 32	16 (≈ 35.4 µM)	32 (≈ 70.9 µM)	179 to 180

Reference: US20020103377A1, “Piperidinyloxy and pyrrolidinyloxy oxazolidinone antibacterials” (priority 1999, published 2002)
